Our source for the IC50 values is patent publication US20240059691A1 (KALVISTA PHARMACEUTICALS LIMITED, priority 2020, published 2024).

Where only a bound is given, the exact number is not on record here.

Assay type in all cases: biochemical
One experiment has as its target Thrombin (Homo sapiens (Human), UniProt P00734). The experiment is described as follows: Determination of related protease inhibition: Thrombin (fluorogenic substrate at Km). The conditions noted are these: 25° C. The procedure:
(§1) Determination of Related Protease Inhibition
(§2) In vitro inhibition of related proteases was determined using an ([…] assay based on standard literature methods (see e.g. Shori et al., Biochem. Pharmacol., 1992, 43, 1209; Bouckaert et al., European Journal of Medicinal Chemistry 110 (2016) 181). Human serine protease enzymes Plasma Kallikrein, KLK1, FXa, Plasmin, Thrombin and Trypsin were assayed for enzymatic activity using an appropriate fluorogenic substrate at Km concentration, FXIa at fixed substrate concentration of 100 μM, and various concentrations of the test compound. Protease activity was measured by monitoring the accumulation of liberated fluorescence from the substrate over […]. The linear rate of fluorescence increase per minute was expressed as percentage (%) activity. IC50 values were calculated as the concentration of inhibitor giving 50% inhibition of the uninhibited enzyme activity (100%).

Another experiment has as its target Plasma Kallikrein (Homo sapiens (Human), UniProt P03952). The experiment is described as follows: Determination of related protease inhibition: Plasma Kallikrein (fluorogenic substrate at Km). The conditions noted are these: 25° C., read-out: IC50 (human PKal). In short, it runs like this:
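IC50 derived as the concentration halving uninhibited activity, from linear fluorescence increase per minute monitored 5 min at 25 °C. Each human protease was run with its fluorogenic substrate at Km concentration across a range of test compound concentrations.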

The next experiment concerns the target KLK1 (Homo sapiens (Human), UniProt P06870). The experiment is described as follows: Determination of related protease inhibition: KLK1 (fluorogenic substrate at Km). The conditions noted are these: 25° C. The procedure: as §1, §2
A further experiment concerns the target FXa (Homo sapiens (Human), UniProt P00742). The experiment is described as follows: Determination of related protease inhibition: FXa (fluorogenic substrate at Km). The conditions noted are these: 25° C. The procedure: as §1, §2
A further experiment has as its target Human Factor XIIa (Homo sapiens (Human), UniProt P00748). The experiment is described as follows: Determination of FXIIa inhibition (fluorogenic substrate H-DPro-Phe-Arg-AFC, IC50 assay). The conditions noted are these: substrate H-DPro-Phe-Arg-AFC at Km, 25° C.; class scale A-G. The procedure, abridged: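 IC50 derived from % remaining activity, taken as the linear fluorescence rate over a 5 min read at 25° C. Substrate H-DPro-Phe-Arg-AFC was used at its Km (Michaelis-Menten) with human FXIIa and serial compound dilutions, 25° C.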

KLK1, sequence (P06870 25-262): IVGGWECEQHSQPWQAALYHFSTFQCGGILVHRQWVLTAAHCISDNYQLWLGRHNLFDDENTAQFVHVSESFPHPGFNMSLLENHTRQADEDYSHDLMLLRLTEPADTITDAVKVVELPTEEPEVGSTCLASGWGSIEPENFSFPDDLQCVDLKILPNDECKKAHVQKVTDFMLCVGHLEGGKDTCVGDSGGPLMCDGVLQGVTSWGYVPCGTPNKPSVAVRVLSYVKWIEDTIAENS
FXa, sequence (P00742 235-488): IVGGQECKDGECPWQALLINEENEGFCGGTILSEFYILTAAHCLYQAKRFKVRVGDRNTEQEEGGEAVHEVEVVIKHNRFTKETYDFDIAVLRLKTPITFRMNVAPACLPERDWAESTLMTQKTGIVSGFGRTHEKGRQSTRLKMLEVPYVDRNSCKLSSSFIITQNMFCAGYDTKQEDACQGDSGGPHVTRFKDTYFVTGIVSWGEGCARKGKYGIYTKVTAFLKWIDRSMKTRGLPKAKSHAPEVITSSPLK
FXa, sequence (P00742 41-179 partner): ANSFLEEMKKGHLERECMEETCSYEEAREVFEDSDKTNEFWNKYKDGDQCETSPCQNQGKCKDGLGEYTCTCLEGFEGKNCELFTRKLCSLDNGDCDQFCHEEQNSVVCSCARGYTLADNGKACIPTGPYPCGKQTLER
Human Factor XIIa, sequence (P00748 373-615): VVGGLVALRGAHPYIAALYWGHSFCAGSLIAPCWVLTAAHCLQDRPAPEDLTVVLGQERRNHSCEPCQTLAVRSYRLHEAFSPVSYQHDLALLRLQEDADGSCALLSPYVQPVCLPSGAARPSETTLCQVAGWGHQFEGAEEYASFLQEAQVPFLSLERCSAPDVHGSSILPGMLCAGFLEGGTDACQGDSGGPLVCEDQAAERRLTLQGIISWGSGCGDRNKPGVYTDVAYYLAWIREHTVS
Plasma Kallikrein, sequence (P03952 391-638): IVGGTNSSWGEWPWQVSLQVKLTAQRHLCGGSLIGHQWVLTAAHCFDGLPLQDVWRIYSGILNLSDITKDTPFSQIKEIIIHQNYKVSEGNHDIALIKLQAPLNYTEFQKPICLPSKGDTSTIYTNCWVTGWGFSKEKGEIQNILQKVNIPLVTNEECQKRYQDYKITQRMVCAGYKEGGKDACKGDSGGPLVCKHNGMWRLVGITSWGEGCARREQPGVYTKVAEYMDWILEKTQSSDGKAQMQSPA
Plasma Kallikrein, sequence (P03952 20-390 partner): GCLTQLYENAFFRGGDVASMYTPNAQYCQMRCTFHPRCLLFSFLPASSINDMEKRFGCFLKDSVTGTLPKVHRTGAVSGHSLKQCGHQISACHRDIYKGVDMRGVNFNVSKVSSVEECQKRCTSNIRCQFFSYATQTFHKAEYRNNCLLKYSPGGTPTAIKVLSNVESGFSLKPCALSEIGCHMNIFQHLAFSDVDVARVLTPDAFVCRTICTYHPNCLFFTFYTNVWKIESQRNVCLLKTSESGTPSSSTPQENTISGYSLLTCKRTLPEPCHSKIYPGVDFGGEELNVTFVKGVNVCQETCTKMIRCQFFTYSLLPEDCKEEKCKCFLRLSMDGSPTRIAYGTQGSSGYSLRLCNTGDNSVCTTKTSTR

As to `CN1CCC(CNc2ccc(CNc3ccc4cnccc4c3Cl)cn2)CC1` [Example 1209, 5-chloro-N-((6-(((1-methylpiperidin-4-yl)methyl)amino)pyridin-3-yl)methyl)isoquinolin-6-amine], the IC50 against Thrombin was more than 40 µM; on Plasma Kallikrein, more than 40 µM; at KLK1, more than 40 µM; against FXa it was more than 40 µM; against Human Factor XIIa, 3 to 10 µM.

Consider `Cn1ccnc1COCc1ccc(CNc2cccc3c(N)nccc23)c(F)c1` [Example 2207, N5-(2-fluoro-4-(((1-methyl-1H-imidazol-2-yl)methoxy)methyl)benzyl)isoquinoline-1,5-diamine], for which the IC50 at Thrombin was in the range of 10 to 40 µM; on Plasma Kallikrein, 3 to 10 µM; on KLK1, 10 to 40 µM; against FXa it was 10 to 40 µM; against Human Factor XIIa it was 1 to 3 µM.

With `Nc1nccc2c(NCc3ccc(CN4CCOCC4)cc3F)cccc12` [Example 1034, 5-N-{[2-fluoro-4-(morpholin-4-ylmethyl)phenyl]methyl}isoquinoline-1,5-diamine], the IC50 at Thrombin was more than 40 µM; at Plasma Kallikrein, more than 40 µM; at KLK1, 10 to 40 µM; against FXa, more than 40 µM; against Human Factor XIIa, 10 to 40 µM.

On to `Nc1nccc2cc(NCc3ccnc(OCC4CCn5ccnc5C4)c3)ccc12` (single isomer, unassigned) [Example 4267, 6-N-({2-[(7S*)-5H,6H,7H,8H-imidazo[1,2-a]pyridin-7-ylmethoxy]pyridin-4-yl}methyl)isoquinoline-1,6-diamine], for which the concentration for half-maximal inhibition (IC50) at Thrombin lay in the range of 0.3 to 1 µM; on Plasma Kallikrein, 3 to 10 µM; against KLK1, 0.3 to 1 µM; against FXa, 0.1 to 0.3 µM; on Human Factor XIIa, 0.01 to 0.1 µM.

Regarding `CN1CCC(NC(=O)c2cc(CNc3cccc4c(N)nccc34)ccn2)CC1` [Example 4289, 4-(((1-aminoisoquinolin-5-yl)amino)methyl)-N-(1-methylpiperidin-4-yl)picolinamide], the IC50 at Thrombin is more than 40 µM; on Plasma Kallikrein, more than 40 µM; at KLK1 it was 10 to 40 µM; against FXa, more than 40 µM; against Human Factor XIIa, 0.3 to 1 µM.

On to `CN1CCC(CNc2ccc(CNc3ccc4c(N)nccc4c3)cn2)CC1` [Example 1033, N6-((6-(((1-methylpiperidin-4-yl)methyl)amino)pyridin-3-yl)methyl)isoquinoline-1,6-diamine], for which the IC50 lay within 3 to 10 µM on Thrombin; 1 to 3 µM at Plasma Kallikrein; 0.3 to 1 µM at KLK1; 3 to 10 µM at FXa; 0.01 to 0.1 µM against Human Factor XIIa.

For `CC(C)N1CCC(CN(CCCO)C(=O)c2cccc(CNc3cccc4c(N)nccc34)c2)CC1` [Example 4441, 3-{[(1-aminoisoquinolin-5-yl)amino]methyl}-N-(3-hydroxypropyl)-N-[(1-isopropylpiperidin-4-yl)methyl]benzamide], the IC50 was more than 40 µM on Thrombin; 10 to 40 µM at Plasma Kallikrein; 1 to 3 µM at KLK1; more than 40 µM against FXa; 0.1 to 0.3 µM at Human Factor XIIa.

As to `CN1CC2CC1CC2COc1cc(CNc2cccc3c(N)nccc23)ccn1` (stereo not drawn) [Example 4276, 5-N-{[2-({2-methyl-2-azabicyclo[2.2.1]heptan-5-yl}methoxy)pyridin-4-yl]methyl}isoquinoline-1,5-diamine], the IC50 was more than 40 µM against Thrombin; more than 40 µM on Plasma Kallikrein; 3 to 10 µM at KLK1; 3 to 10 µM at FXa; 0.3 to 1 µM against Human Factor XIIa.

Take `CC(=O)N1CC2CC1CC2COc1cc(CNc2cccc3c(N)nccc23)ccn1` (stereo not drawn) [Example 4274, 1-(5-(((4-(((1-Aminoisoquinolin-5-yl)amino)methyl)pyridin-2-yl)oxy)methyl)-2-azabicyclo[2.2.1]heptan-2-yl)ethan-1-one]: the IC50 on Thrombin is 10 to 40 µM; on Plasma Kallikrein, more than 40 µM; at KLK1, 3 to 10 µM; against FXa, 1 to 3 µM; against Human Factor XIIa it was 1 to 3 µM.
